Columns and labels:
[1] = target: T1, CD45 (Homo sapiens, UniProt P08575); assay: Selectivity assay, pNPP substrate; assay type: biochemical; settings: relative to STEP Ki
T1 sequence (P08575 26-1306): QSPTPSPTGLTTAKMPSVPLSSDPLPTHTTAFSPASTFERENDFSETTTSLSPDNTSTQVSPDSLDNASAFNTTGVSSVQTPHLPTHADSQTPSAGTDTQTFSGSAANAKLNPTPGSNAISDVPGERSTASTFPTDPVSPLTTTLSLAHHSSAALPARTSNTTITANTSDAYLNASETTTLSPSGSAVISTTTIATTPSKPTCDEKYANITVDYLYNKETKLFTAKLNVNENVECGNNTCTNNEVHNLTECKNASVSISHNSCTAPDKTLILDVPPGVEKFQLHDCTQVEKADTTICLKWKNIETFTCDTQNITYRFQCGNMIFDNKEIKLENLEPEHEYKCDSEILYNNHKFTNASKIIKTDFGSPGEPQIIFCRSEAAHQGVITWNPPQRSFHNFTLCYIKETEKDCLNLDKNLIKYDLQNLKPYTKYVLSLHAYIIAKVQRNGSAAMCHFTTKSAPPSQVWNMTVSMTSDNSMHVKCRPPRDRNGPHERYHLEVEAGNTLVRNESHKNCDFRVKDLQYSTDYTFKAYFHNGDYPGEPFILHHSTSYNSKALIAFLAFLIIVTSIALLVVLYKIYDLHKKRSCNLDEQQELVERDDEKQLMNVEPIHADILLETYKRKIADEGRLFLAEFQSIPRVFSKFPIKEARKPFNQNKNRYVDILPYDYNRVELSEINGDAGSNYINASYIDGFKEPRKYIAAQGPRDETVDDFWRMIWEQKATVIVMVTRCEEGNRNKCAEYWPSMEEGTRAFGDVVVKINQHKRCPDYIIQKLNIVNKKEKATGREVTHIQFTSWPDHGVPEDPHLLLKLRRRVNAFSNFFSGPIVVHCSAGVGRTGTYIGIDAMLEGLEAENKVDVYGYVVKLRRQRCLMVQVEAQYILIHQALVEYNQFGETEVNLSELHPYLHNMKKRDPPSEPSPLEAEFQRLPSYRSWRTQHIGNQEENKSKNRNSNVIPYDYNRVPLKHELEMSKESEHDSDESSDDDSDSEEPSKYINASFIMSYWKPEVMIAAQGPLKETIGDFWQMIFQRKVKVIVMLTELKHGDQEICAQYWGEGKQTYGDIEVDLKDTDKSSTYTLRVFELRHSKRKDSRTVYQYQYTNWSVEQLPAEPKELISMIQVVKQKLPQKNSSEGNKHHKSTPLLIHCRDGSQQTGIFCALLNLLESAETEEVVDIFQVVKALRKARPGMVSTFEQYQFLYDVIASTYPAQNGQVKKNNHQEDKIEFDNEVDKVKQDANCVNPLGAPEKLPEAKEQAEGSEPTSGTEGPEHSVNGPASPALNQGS

[2] = target: LAR (Homo sapiens, UniProt P10586); assay: Selectivity assay, pNPP substrate; assay type: biochemical; settings: relative to STEP Ki
[3] = Solubility of the inhibitor; assay type: physicochemical; settings: hydroxyl group at the benzylic position, compared with 12p
[4] = BBB PAMPA; assay type: in vitro ADME; settings: PAMPA model system; data in SI
[5] = target: T2, STEP (Rattus norvegicus, UniProt P35234); assay: STEP inhibition in neuronal cultures, Western blotting of phospho-substrates; assay type: cell-based; settings: rat cortical neurons, 0.1, 1 or 10 µM for 1 h
T2 sequence (P35234 53-369 limits assumed): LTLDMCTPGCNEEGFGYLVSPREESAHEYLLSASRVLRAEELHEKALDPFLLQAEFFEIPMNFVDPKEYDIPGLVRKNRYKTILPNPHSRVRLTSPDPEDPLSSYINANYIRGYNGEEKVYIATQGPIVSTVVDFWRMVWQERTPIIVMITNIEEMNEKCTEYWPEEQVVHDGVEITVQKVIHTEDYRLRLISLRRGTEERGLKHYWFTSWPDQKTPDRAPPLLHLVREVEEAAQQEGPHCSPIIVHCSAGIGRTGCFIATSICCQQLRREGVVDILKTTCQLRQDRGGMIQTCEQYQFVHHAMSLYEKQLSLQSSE

[6] = target: T3, MKP5 (Homo sapiens, UniProt Q9Y6W6); assay: Selectivity assay, DiFMUP substrate; assay type: biochemical; settings: relative to STEP Ki
T3 sequence (Q9Y6W6 1-482): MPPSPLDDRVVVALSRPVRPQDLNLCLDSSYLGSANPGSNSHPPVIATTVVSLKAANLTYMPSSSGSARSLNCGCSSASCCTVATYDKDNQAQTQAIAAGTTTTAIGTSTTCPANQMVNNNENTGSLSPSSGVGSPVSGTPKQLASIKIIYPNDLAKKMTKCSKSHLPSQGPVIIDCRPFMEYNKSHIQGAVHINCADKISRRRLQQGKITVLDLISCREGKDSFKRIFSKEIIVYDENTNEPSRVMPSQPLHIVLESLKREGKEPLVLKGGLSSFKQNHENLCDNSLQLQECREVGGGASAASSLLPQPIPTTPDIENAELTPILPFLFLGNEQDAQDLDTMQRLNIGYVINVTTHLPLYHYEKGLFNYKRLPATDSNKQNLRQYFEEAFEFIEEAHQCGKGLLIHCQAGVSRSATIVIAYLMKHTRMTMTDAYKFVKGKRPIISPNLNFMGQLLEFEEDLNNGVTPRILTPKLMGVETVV

Sequence of LAR (P10586 30-1907): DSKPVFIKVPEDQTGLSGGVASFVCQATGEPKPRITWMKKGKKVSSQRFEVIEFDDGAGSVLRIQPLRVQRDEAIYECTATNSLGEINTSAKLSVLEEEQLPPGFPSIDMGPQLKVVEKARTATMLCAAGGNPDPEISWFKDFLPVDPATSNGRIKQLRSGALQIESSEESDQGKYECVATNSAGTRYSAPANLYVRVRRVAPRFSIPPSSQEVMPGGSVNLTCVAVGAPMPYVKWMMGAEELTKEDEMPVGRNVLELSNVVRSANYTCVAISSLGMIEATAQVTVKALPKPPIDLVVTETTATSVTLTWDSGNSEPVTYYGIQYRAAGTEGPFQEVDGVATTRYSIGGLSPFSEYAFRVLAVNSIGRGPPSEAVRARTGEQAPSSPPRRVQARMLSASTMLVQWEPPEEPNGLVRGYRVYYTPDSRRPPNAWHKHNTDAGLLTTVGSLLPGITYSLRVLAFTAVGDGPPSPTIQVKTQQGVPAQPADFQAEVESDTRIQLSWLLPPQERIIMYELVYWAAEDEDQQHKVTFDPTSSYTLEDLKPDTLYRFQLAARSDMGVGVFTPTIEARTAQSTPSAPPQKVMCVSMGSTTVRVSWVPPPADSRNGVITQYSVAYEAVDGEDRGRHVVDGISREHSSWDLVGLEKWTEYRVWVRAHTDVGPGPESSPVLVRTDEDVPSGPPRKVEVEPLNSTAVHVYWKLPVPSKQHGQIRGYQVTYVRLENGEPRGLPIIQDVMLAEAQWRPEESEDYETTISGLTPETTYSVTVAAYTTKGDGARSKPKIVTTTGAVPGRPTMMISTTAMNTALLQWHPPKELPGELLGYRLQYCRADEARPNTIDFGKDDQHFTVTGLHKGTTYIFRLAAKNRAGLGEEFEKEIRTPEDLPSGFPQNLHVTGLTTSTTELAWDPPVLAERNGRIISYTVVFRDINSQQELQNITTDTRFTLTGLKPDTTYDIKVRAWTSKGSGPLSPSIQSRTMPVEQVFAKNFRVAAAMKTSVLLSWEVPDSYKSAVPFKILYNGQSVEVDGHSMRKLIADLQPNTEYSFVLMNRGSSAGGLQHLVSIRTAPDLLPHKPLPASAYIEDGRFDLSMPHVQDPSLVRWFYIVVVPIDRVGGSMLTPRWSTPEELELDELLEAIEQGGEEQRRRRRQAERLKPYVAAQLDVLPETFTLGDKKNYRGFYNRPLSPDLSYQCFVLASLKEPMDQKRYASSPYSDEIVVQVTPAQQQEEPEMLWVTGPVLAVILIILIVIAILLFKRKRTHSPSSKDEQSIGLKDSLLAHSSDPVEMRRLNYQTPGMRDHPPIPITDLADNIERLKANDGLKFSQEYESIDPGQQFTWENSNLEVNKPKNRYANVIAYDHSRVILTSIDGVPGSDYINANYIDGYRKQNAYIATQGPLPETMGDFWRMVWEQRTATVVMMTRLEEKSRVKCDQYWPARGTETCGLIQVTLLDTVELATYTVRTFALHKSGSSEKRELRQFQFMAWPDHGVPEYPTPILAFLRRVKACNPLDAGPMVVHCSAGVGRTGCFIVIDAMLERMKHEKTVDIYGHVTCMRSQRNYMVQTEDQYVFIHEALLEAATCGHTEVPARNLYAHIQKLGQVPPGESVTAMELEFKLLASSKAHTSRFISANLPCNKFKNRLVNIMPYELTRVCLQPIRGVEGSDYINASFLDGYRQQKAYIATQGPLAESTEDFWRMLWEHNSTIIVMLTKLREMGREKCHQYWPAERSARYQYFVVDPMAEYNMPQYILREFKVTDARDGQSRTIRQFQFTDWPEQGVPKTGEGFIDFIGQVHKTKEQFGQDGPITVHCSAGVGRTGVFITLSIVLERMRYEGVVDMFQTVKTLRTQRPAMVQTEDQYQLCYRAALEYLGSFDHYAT

Q: What does the source list for `O=P(O)(O)C(F)(F)c1cccc(-c2cccc(C3CCCCC3)c2O)c1` [11m, ((3'-Cyclohexyl-2'-hydroxy-[1,1'-biphenyl]-3-yl)difluoromethyl)phosphonic Acid]?
A: selectivity CD45 [1]: >25; selectivity LAR [2]: >45

Q: For `O=P(O)(O)C(F)(F)c1ccc(-c2cccc(C(O)c3ccc(Cl)c(Cl)c3)c2)cc1` (stereo not shown) [12q, ((3'-((3,4-Dichlorophenyl)(hydroxy)methyl)-[1,1'-biphenyl]-4-yl)difluoromethyl)phosphonic Acid], which “solubility of the inhibitor” value [3] is on record?
A: increased the solubility

Q: What does the source list for `O=P(O)(O)[C@H](O)c1ccc(-c2cccc([C@@H](O)c3ccc(Cl)c(Cl)c3)c2)cc1` [12s, ((S)-(3'-((R)-(3,4-dichlorophenyl)(hydroxy)methyl)-[1,1'-biphenyl]-4-yl)(hydroxy)methyl)phosphonic Acid]?
A: ability to passively permeate the blood-brain barrier [4]: did not possess the ability to passively cross the BBB; phosphorylation levels of STEP substrates GluN2B, Pyk2 and ERK1/2 [5]: Clear increases in the phosphorylation levels

Q: Which results are given for `O=P(O)(O)[C@H](O)c1ccc(-c2cccc([C@H](O)c3ccc(Cl)c(Cl)c3)c2)cc1` [12t, ((S)-(3'-((S)-(3,4-dichlorophenyl)(hydroxy)methyl)-[1,1'-biphenyl]-4-yl)(hydroxy)methyl)phosphonic Acid]?
A: selectivity MKP5 [6]: >65; phosphorylation levels of STEP substrates GluN2B, Pyk2 and ERK1/2 [5]: more modest effects

Source: paper PMC3875168 (Journal of medicinal chemistry, 2013)
